According to ChEMBL document CHEMBL4418308, “cGAS ANTAGONIST COMPOUNDS” (2017):

These compounds were tested against Cyclic GMP-AMP synthase (Homo sapiens, UniProt Q8N884) (assay: Inhibition of recombinant His6-SUMO tagged human CGAS expressed in Escherichia coli BL21/pLys cells incubated for 20 mins by Kinase Glo chemiluminescence assay).
Sequence of Cyclic GMP-AMP synthase (Q8N884 whole entry): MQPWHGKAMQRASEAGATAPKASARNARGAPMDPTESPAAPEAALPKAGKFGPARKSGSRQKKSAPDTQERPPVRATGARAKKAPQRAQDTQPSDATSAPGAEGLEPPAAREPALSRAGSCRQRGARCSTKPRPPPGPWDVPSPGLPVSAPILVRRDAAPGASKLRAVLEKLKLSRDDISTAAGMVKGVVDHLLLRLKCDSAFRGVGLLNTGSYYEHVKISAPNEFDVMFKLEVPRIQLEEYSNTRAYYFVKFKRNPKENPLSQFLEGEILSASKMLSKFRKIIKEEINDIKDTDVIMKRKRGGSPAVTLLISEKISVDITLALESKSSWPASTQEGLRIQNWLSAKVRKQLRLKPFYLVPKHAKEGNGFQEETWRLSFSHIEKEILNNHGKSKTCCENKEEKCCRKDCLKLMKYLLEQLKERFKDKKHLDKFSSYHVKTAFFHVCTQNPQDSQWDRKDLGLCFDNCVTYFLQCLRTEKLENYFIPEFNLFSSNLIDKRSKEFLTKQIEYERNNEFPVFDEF

Structure (SMILES) | IC50 [µM]
CN1C(=O)S/C(=C\c2cc(Oc3cccc4ncccc34)c(O)cc2Br)C1=O | ≥ 10
CN1C(=O)S/C(=C\c2cc(OCc3cnc(-c4ccccn4)nc3)c(O)cc2Br)C1=O | 0.5 to 10
CN1C(=O)S/C(=C\c2cc(OC(F)(F)F)c(Oc3cnc(N)s3)cc2Br)C1=O | ≥ 10
COc1cc(/C=c2\sc3n(c2=O)CCCN=3)c(Br)cc1O | ≥ 10
CC(=O)c1cc(/C=C2\SC(=O)N(C)C2=O)c(Br)cc1Oc1cnc(N)s1 | ≥ 10
C/C(=C1/SC(=O)NC1=O)c1ccncc1 | ≤ 0.5
COc1cc(/C=c2\sc3n(c2=O)CCN=3)c(Br)cc1O | ≥ 10
CN1C(=O)S/C(=C\c2cc(OCc3ccnc(N)c3)c(O)cc2Br)C1=O | 0.5 to 10
O=C1NC(=O)/C(=C/c2ccncc2)S1 | ≤ 0.5
COc1cc(/C=C2\Sc3ncccc3C2=O)c(I)cc1O | ≤ 0.5
O=C1NC(=O)/C(=C/c2cccnc2)S1 | ≥ 10
Cc1ncc(COc2cc(/C=C3\Sc4ncccc4C3=O)c(Br)cc2O)c(C)n1 | ≤ 0.5
COc1cc(/C=C2\Sc3ncccc3C2=O)c(Br)cc1Oc1cnc(N)s1 | ≥ 10
CN1C(=O)S/C(=C\c2cc(OCc3cnc(NCc4ccccc4)nc3)c(O)cc2Br)C1=O | ≥ 10
COc1cc(/C=C2\SC(=O)N(C)C2=S)c(Br)cc1O | ≤ 0.5
COc1cc(/C=c2\sc3n(c2=O)CCCN=3)c(Cl)cc1O | ≥ 10
COc1cc(/C=C2\Sc3ncc(F)cc3C2=O)c(Br)cc1O | ≤ 0.5
O=C1NC(=O)/C(=C/c2cnccn2)S1 | ≥ 10
CN1C(=O)S/C(=C\c2cc3cc[nH]c3cc2Br)C1=O | 0.5 to 10
CC(Oc1cc(/C=C2\Sc3ncccc3C2=O)c(Br)cc1O)c1cccnc1 (stereo unspecified) | 0.5 to 10
CN1C(=O)S/C(=C\c2cc(OCC3CCN(C(=O)c4ccccc4)CC3)c(O)cc2Br)C1=O | ≥ 10
CN1C(=O)S/C(=C\c2cc(OCCc3ccncc3)c(O)cc2Br)C1=O | 0.5 to 10

Structure (SMILES) | IC50 [µM]
CN1C(=O)S/C(=C\c2cc(OCC(F)(F)c3cnc(N)nc3)c(O)c(F)c2Br)C1=O | 0.5 to 10
CN1C(=O)S/C(=C\c2ccc(O)cc2Br)C1=O | ≥ 10
COc1cc(/C=C2\Sc3ncccc3C2=O)c(Br)c(Cl)c1O | ≤ 0.5
CN1CCC(c2ncc(COc3cc(/C=C4\SC(=O)N(C)C4=O)c(Br)cc3O)cn2)CC1 | ≥ 10
CN1C(=O)S/C(=C\c2cc3cc[nH]c3c(F)c2Br)C1=O | 0.5 to 10
CN1C(=O)S/C(=C\c2cc(OCc3ccn(Cc4ccccc4)c(=O)c3)c(O)cc2Br)C1=O | ≥ 10
CN1C(=O)S/C(=C\c2cc3oc(=O)[nH]c3cc2Br)C1=O | ≥ 10
CC(Oc1cc(/C=C2\SC(=O)N(C)C2=O)c(Br)cc1O)c1cnc(N)nc1 (stereo unspecified) | ≤ 0.5
CN1C(=O)S/C(=C\c2cc(OCc3ccc4cccnc4c3)c(O)cc2Br)C1=O | ≥ 10
CN1C(=O)S/C(=C\c2cc(OCc3cnc(N4CCCCC4)nc3)c(O)cc2Br)C1=O | ≥ 10
COc1cc(/C(Br)=C2\SC(=O)N(C)C2=O)c(Br)cc1O | ≥ 10
Cc1ncc(COc2cc(/C=C3\SC(=O)N(C)C3=O)c(Br)c(F)c2O)cn1 | 0.5 to 10
Cc1ncc(COc2cc(/C=C3\SC(=O)N(C)C3=O)c(Br)cc2O)cn1 | ≤ 0.5
CN1C(=O)S/C(=C\c2cc(OCc3cnc(N)nc3C(F)(F)F)c(O)cc2Br)C1=O | ≤ 0.5
COc1cc(/C=C2\Sc3ncccc3C2=O)c(C)cc1O | 0.5 to 10
CN1C(=O)S/C(=C\c2cc(C(F)(F)F)c(O)cc2Br)C1=O | ≤ 0.5
Cc1nc(N)nc(C)c1COc1cc(/C=C2\SC(=O)N(C)C2=O)c(Br)cc1O | ≥ 10
O=C1NC(=O)/C(=C2\CCCc3cnccc32)S1 | ≤ 0.5
CN1C(=O)S/C(=C\c2cc(OCc3cnc(NCc4ccccn4)nc3)c(O)c(F)c2Br)C1=O | ≥ 10
CC(=O)c1cc(N)ccc1Oc1cc(/C=C2\SC(=O)N(C)C2=O)c(Br)c(F)c1O | ≥ 10
N=C1NC(=O)/C(=C/c2ccncc2)S1 | ≥ 10
COc1ncc(COc2cc(/C=C3\SC(=O)N(C)C3=O)c(Br)cc2O)cn1 | 0.5 to 10

Structure (SMILES) | IC50 [µM]
CN1C(=O)S/C(=C\c2cc(OCc3cnc(-n4cccn4)nc3)c(O)cc2Br)C1=O | 0.5 to 10
CN1C(=O)S/C(=C\c2cc(OCc3cnc(Nc4cccnc4)nc3)c(O)cc2Br)C1=O | 0.5 to 10
Cc1nc(N)ncc1C(C)Oc1cc(/C=C2\Sc3ncccc3C2=O)c(Br)c(F)c1O (stereo unspecified) | ≤ 0.5
O=C1NC(=O)/C(=C/c2ccncc2)N1 | 0.5 to 10
COc1nc(SC)ncc1COc1cc(/C=C2\SC(=O)N(C)C2=O)c(Br)cc1O | ≥ 10
CN1C(=O)S/C(=C\c2cc(OCc3ccc(NC(=O)c4ccccn4)nc3)c(O)cc2Br)C1=O | ≥ 10
CNc1ncc(C(C)Oc2cc(/C=C3\SC(=O)N(C)C3=O)c(Br)c(F)c2O)cn1 (stereo unspecified) | ≥ 10
O=C1/C(=C/c2cc(OCc3ccncc3)c(O)cc2Br)Sc2ncccc21 | ≤ 0.5
Cc1nc(N)ncc1C(C)Oc1cc(/C=C2\SC(=O)N(C)C2=O)c(Br)cc1O (stereo unspecified) | ≥ 10
CN1C(=O)S/C(=C\c2cc(Oc3cccc4c3COCC4)c(O)cc2Br)C1=O | ≥ 10
CN1C(=O)S/C(=C\c2cc3c(Cc4cnc(N)nc4)c[nH]c3cc2Br)C1=O | ≥ 10
CSc1ncc(COc2cc(/C=C3\SC(=O)N(C)C3=O)c(Br)cc2O)c(SC)n1 | ≥ 10
COc1cc(/C=C2\SC(=O)N(C)C2=O)c(C#N)cc1O | ≥ 10
CN1CCC(COc2cc(/C=C3\SC(=O)N(C)C3=O)c(Br)cc2O)CC1 | ≥ 10
CN1C(=O)S/C(=C\c2cc(OCc3cncnc3O)c(O)cc2Br)C1=O | ≤ 0.5
CN1C(=O)S/C(=C\c2cc(OCc3ccnc(N)n3)c(O)cc2Br)C1=O | 0.5 to 10
COc1cc(/C=C2\SC(=O)N(C)C2=O)c(Br)cc1NS(=O)(=O)C(F)(F)F | 0.5 to 10
CN1C(=O)S/C(=C\c2cc3c(-c4ccc(N)cc4)c[nH]c3cc2Br)C1=O | 0.5 to 10
CN1C(=O)S/C(=C\c2cc(Oc3ccccc3)c(O)cc2Br)C1=O | ≥ 10
CN1C(=O)S/C(=C\c2cc(OCc3cnc(-n4ccnc4)nc3)c(O)cc2Br)C1=O | 0.5 to 10
COc1cc(/C=C/C=C2\SC(=O)N(C)C2=O)c(Br)cc1O | ≥ 10
CN1C(=O)S/C(=C\c2cc(OCc3cccc4cnccc34)c(O)cc2Br)C1=O | ≥ 10

Structure (SMILES) | IC50 [µM]
CN1C(=O)S/C(=C\c2cc(OCc3cnc(NC(=O)c4ccncc4)nc3)c(O)cc2Br)C1=O | ≤ 0.5
COc1cc(/C=C2\SC(=O)N(C)C2=O)c(Br)cc1Oc1ccncc1 | ≥ 10
COc1cc(/C=C2\SC(=O)N(C)C2=O)c(Br)cc1OCc1ccncc1 | ≥ 10
O=C1NC(=O)/C(=C/c2ccnnc2)N1 | ≥ 10
COc1cc(/C=C2\Sc3nccnc3C2=O)c(Br)cc1O | ≥ 10
CN1C(=O)S/C(=C\c2cc(OCC3CCN(C(=O)c4ccncc4)CC3)c(O)cc2Br)C1=O | ≥ 10
CN1C(=O)S/C(=C\c2cc(OCc3cnc(N4CCCC4)nc3)c(O)cc2Br)C1=O | ≥ 10
CN1C(=O)S/C(=C\c2cc(OCc3cncc(NC(=O)c4cccnc4)c3)c(O)cc2Br)C1=O | ≥ 10
CCC/N=C1/S/C(=C\c2cc(OC)c(O)cc2Br)C(=O)N1C | ≥ 10
CN1C(=O)S/C(=C\c2cc(OCc3cnc(C4CC4)nc3)c(O)cc2Br)C1=O | ≥ 10
COc1cc(/C=C2\SC(=O)N(C)C2=O)c(Br)cc1Oc1cnc(NCc2cccnc2)s1 | ≥ 10
CSc1nc([S+](C)[O-])ncc1COc1cc(/C=C2\Sc3ncccc3C2=O)c(Br)c(F)c1O (stereo unspecified) | ≤ 0.5
CN1C(=O)S/C(=C\c2cc(OCc3cnc(S)nc3)c(O)cc2Br)C1=O | ≥ 10
COc1cc(/C=C2\SC(=O)N(C)C2=O)c(Br)c(Cl)c1O | ≥ 10
CN1C(=O)S/C(=C\c2cc(OCc3cnc(Nc4ccccc4)nc3)c(O)cc2Br)C1=O | ≥ 10
CN1C(=O)S/C(=C\c2cc(Oc3ccc(-c4ccccn4)cc3)c(O)cc2Br)C1=O | ≥ 10
O=C1/C(=C/c2cc3oc(=O)[nH]c3cc2Br)Sc2ncccc21 | ≥ 10
O=C1NC(=O)/C(=C/c2cncnc2)S1 | ≥ 10
Cc1cnccc1/C=C1\SC(=O)NC1=O | ≤ 0.5
CC(Oc1cc(/C=C2\SC(=O)N(C)C2=O)c(Br)c(F)c1O)C(O)c1cncnc1N (stereo unspecified) | ≤ 0.5
CC(Oc1cc(CC2Sc3ncccc3C2=O)c(Br)c(F)c1O)c1cnc(Cl)nc1 (stereo unspecified) | ≥ 10
COc1nc([S+](C)[O-])ncc1COc1cc(/C=C2\SC(=O)N(C)C2=O)c(Br)cc1O (stereo unspecified) | ≥ 10

Structure (SMILES) | IC50 [µM]
COc1cc(/C=C2\SC(=O)N(C)C2=O)c(Br)cc1Oc1ccnc2ccccc12 | ≥ 10
CN1C(=O)S/C(=C\c2cc(CCc3ccc([S+](C)[O-])cc3)c(O)cc2Br)C1=O (stereo unspecified) | ≥ 10
CN1C(=O)S/C(=C\c2cc(OCc3cnc(NCc4ccncc4)nc3)c(O)c(F)c2Br)C1=O | ≤ 0.5
CN1C(=O)S/C(=C\c2cc(OCc3cncc4ccccc34)c(O)cc2Br)C1=O | ≥ 10
CN1C(=O)S/C(=C\c2cc(OCc3ccc(=O)[nH]c3)c(O)cc2Br)C1=O | 0.5 to 10
CN1C(=O)S/C(=C\c2cc(OCc3cnc(-c4ccncc4)nc3)c(O)cc2Br)C1=O | ≤ 0.5
COc1nc(N)ncc1COc1cc(/C=C2\SC(=O)N(C)C2=O)c(Br)cc1O | ≥ 10
CN1CCN(c2ncc(COc3cc(/C=C4\SC(=O)N(C)C4=O)c(Br)cc3O)cn2)CC1 | ≥ 10
COc1cc(/C=c2\sc3nc(C)cn3c2=O)c(Br)cc1O | ≥ 10
CN1C(=O)S/C(=C\c2cc(Oc3ccc(=O)[nH]c3)c(O)cc2Br)C1=O | 0.5 to 10
CN1C(=O)S/C(=C\c2cc(OCc3cnc(S(C)(=O)=O)nc3Cl)c(O)cc2Br)C1=O | ≥ 10
CC/N=C1/S/C(=C\c2cc(OC)c(O)cc2Br)C(=O)N1C | ≥ 10
CC(Oc1cc(/C=C2\SC(=O)N(C)C2=O)c(Br)c(F)c1Oc1cnc(N)s1)c1cnc(N)nc1 (stereo unspecified) | 0.5 to 10
COc1cc(/C=C2\SC(=O)N(C)C2=O)c(C)cc1O | 0.5 to 10
CN1C(=O)S/C(=C\c2cc(C(C)(F)F)c(O)cc2Br)C1=O | ≥ 10
CN1C(=O)S/C(=C\c2cc(OCc3ccccc3)c(O)cc2Br)C1=O | ≥ 10
O=C1/C(=C/c2cc(OCc3cnc(NCc4ccccn4)nc3)c(O)cc2Br)Sc2ncccc21 | ≤ 0.5
CSc1ncncc1C(=O)C(C)Oc1cc(/C=C2\SC(=O)N(C)C2=O)c(Br)c(F)c1O (stereo unspecified) | ≥ 10
